Reference: PMC2787625, “A Neuronal Acetylcholine Receptor Regulates the Balance of Muscle Excitation and Inhibition in Caenorhabditis elegans” (PLoS Biology, 2009)
Read-outs that look alike come from different tables or passages of the source.

What was measured:
[1] = tested on: ACR-2R (ACR-2-containing acetylcholine receptor: UNC-38, UNC-63, ACR-12, ACR-2, ACR-3); details: agonist; 1 mM external CaCl2; 500 µM and 1 mM points excluded from fit (open-channel block)
[2] = tested on: ACR-2R (ACR-2-containing acetylcholine receptor: UNC-38, UNC-63, ACR-12, ACR-2, ACR-3); details: agonist; 1 mM external CaCl2; 500 µM and 1 mM points excluded from fit (open-channel block); n2420 gain-of-function subunit ACR-2(V13′M)

SMILES: CC(=O)OCC[N+](C)(C)C [acetylcholine]
- EC50 [1]: 14.1 ± 1.2 µM
- EC50 [2]: 17.8 ± 1.4 µM
